Laboratory results as given in US4038033A, “Selenium labelled compounds in the saturation analysis of cyclic nucleotide” (The Radiochemical Centre, Limited, priority 1975, dated 1977).

Experiments:
[1] = tested on: natural binding protein extracted from bovine muscle; test: Saturation analysis of cyclic AMP: binding of 75Se-labelled cyclic AMP derivative to binding protein and displacement by cyclic AMP; conditions: for Percentage of 75Se-labelled cyclic AMP bound: 3 picomoles ligand, pH 7.5, 2°-4° C., 3 hours; for binding to natural binding protein extracted from bovine muscle / displacement with 3',5'-cyclic AMP from natural binding protein: qualitative
Experimental: Standard solutions of cyclic AMP containing 1, 2, 4, 8 and 16 picomoles in 50mmol tris/4mmol EDTA buffer, pH 7.5 (50μl) were pipetted into assay tubes maintained at 2°-4° C. Buffer was also added to `total` `blank` and `zero dose` tubes (150, 150 and 50μl respectively),also at 2-4' C. To each tube was added 8-methylseleno-cyclic AMP-^75 Se (3 picomoles; specific activity ca 22Ci/mmol) in 50μl of buffer.
Binding protein (ex bovine muscle) in 100μl of buffer was then added to all tubes except the `blanks`. The tubes were vortex mixed for approximately 5 seconds and then incubated at 2°-4° C. for 3 hours. A suspension of charcoal in water (100μl) was added to all tubes except the `totals` and after vortex mixing for approximately 5 seconds the tubes were immediately centrifuged to sediment the charcoal. A 200μl sample was removed from the supernate of each tube and from the `totals` and counted in a gamma counter.
(§1) Results are expressed in terms of […]

[2] = tested on: Antiserum (raised against cyclic GMP-2'-succinyl-BSA); test: Saturation analysis of cyclic GMP: binding of 8-methylseleno-cyclic GMP-75Se to antiserum and displacement by cyclic GMP; conditions: for Percentage of 75Se-labelled cyclic GMP bound: 0.25 picomoles ligand, pH 7.5, 2°-4° C., 3 hours
Experimental: Standard solutions of cyclic GMP containing 0.25, 0.5, 1.0, 2, 4, 8 and 16,000 picomoles in 100μl of 50mmol tris/4mmol EDTA buffer, pH 7.5, were pipetted into assay tubes maintained at 2°-4° C.; the concentration of 16,000 picomoles/100μl was for determination of `non-specific binding`. 100μl of buffer was also added to a tube for determination of `zero dose` counts. To each tube was added 8-methylseleno-cyclic GMP-^75 Se (0.25 picomoles, specific activity ca 24Ci/mmol) in 50μl of buffer. Antiserum (raised against cyclic GMP-2'-succinyl-BSA) in 50μl of buffer was then added to all tubes. The tubes were briefly vortex mixed and incubated at 2°-4° C. for 3 hours. 1ml of aqueous ammonium sulphate solution (60% saturated) at 2°-4° C. was added to all tubes which, after mixing, were kept at 2°-4° C. for 5 minutes and then centrifuged. After decantation of the supernate and removal of adhering liquid the precipitates were counted in a gamma counter. 0.25 picomoles of 8-methylseleno-cyclic GMP-^75 Se (specific activity ca 24Ci/mmol) in 50μl of buffer was also counted to give `total` counts.
as §1

binding protein = test: Competitive inhibition of the binding of tritiated cyclic AMP to the binding protein; design: species or system bovine; conditions: for % 3H-cyclic AMP bound: tritiated cyclic AMP 0.9pmol, zero-dose binding 54.5; for Cyclic AMP equivalent: unlabelled cyclic AMP giving equal reduction in binding
Experimental: Because of the low activity of the 6-methylselenopurine riboside 3',5'-cyclic monophosphate-^75 Se its binding properties were investigated by using the selenium-75 compound as a competitive inhibitor of the binding of tritiated cyclic AMP to the binding protein.
6-methylselenopurine riboside 3',5'-cyclic monophosphate-^75 Se (specific activity 6.65m Ci/mmol) was made up in tris/EDTA buffer at concentrations of 1,156 pmoles, 105pmoles and 9.6pmoles per 50μl aliquot. In the normal assay 100μl of binding protein is incubated with tritiated cyclic AMP (0.9pmol) and unlabelled cyclic AMP (standards and unknowns). Bound and free labelled cyclic AMP are separated by absorption of free cyclic AMP on charcoal and bound activity is determined by counting a sample of the supernate. To determine the potency of the selenium analogue the zero-dose binding was first determined, ie. the percentage of tritiated cylic AMP bound in the absence of unlabelled cyclic AMP or selenium analogue. This was then compared with the binding of tritiated cylic AMP in the presence of 4 different doses of selenium analogue. From the results obtained it was possible to calculate the amounts of unlabelled cyclic AMP which would give a reduction in binding equal to that caused by the selenium analogue.

[3] = tested on: antibodies raised against these cyclic nucleotides (3',5'-cyclic AMP and 3',5'-cyclic GMP); test: Binding of selenocysteine conjugates to antibodies raised against the cyclic nucleotides; conditions: qualitative
[4] = tested on: Antiserum (raised against cyclic GMP-2'-succinyl-BSA); test: Saturation analysis of cyclic GMP: binding of Se-methyl-L-selenocysteine-75Se conjugate of 2'-O-succinyl cyclic GMP to antiserum and displacement by cyclic GMP; conditions: 0.59 picomoles ligand, pH 7.5, 2°-4° C., 3 hours
Experimental: Standard solutions of cyclic GMP containing 5, 10, 20, 40, 80 and 16,000 picomoles in 100μl of 50mmol tris/4mmol EDTA buffer, pH 7.5 were pipetted into assay tubes maintained at 2°-4° C.; the concentration of 16,000 picomoles/100μl was for determination of `non-specific binding`. 100μl of buffer was also added to a tube for determination of `zero dose` counts. To each tube was added Se-methyl-L-selenocysteine-^75 Se conjugate of 2' -O-succinyl cyclic GMP (0.59 picomoles; specific activity ca 16.1Ci/mmol) in 50μl of buffer. Antiserum (raised against cyclic GMP-2'-succinyl-BSA) in 50μl of buffer was then added to all tubes. The tubes were briefly vortex mixed and incubated at 2°-4° C. for 3 hours. 1ml of aqueous ammonium sulphate solution (60% saturated) at 2°-4° C. was added to all tubes which, after mixing, were kept at 2°-4° C. for 5 minutes and then centrifuged.
After decantation of the supernate and removal of adhering liquid the precipitates were counted in a gamma counter. 0.59 picomoles of the Se-methyl-L-selenocysteine-^75 Se conjugate of 2' -O-succinyl cyclic GMP in 50μl of buffer was also counted to give `total` counts.
as §1

Structure (SMILES): C[75Se]c1nc2c(N)ncnc2n1[C@@H]1O[C@@H]2COP(=O)(O)O[C@H]2[C@H]1O [I, 8-methylselenoadenosine 3', 5'-cyclic monophosphate-^75 Se]
- Percentage of 75Se-labelled cyclic AMP bound ([1]; dose of cyclic AMP 0 picomoles): 38.8%
- Percentage of 75Se-labelled cyclic AMP bound ([1]; dose of cyclic AMP 1 picomole): 29.7%
- Percentage of 75Se-labelled cyclic AMP bound ([1]; dose of cyclic AMP 2 picomoles): 26.7%
- Percentage of 75Se-labelled cyclic AMP bound ([1]; dose of cyclic AMP 4 picomoles): 21.4%
- Percentage of 75Se-labelled cyclic AMP bound ([1]; dose of cyclic AMP 8 picomoles): 16.6%
- Percentage of 75Se-labelled cyclic AMP bound ([1]; dose of cyclic AMP 16 picomoles): 10.6%
- binding to natural binding protein extracted from bovine muscle [1]: shown to bind
- displacement with 3',5'-cyclic AMP from natural binding protein [1]: capable of displacement

Structure (SMILES): C[75Se]c1nc2c(=O)[nH]c(N)nc2n1[C@@H]1O[C@@H]2COP(=O)(O)O[C@H]2[C@H]1O [II, 8-methylselenoguanosine 3',5'-cyclic monophosphate-^75 Se]
- Percentage of 75Se-labelled cyclic GMP bound ([2]; dose of cyclic GMP 0 picomoles): 45.3%
- Percentage of 75Se-labelled cyclic GMP bound ([2]; dose of cyclic GMP 0.25 picomoles): 33.7%
- Percentage of 75Se-labelled cyclic GMP bound ([2]; dose of cyclic GMP 0.5 picomoles): 27.8%
- Percentage of 75Se-labelled cyclic GMP bound ([2]; dose of cyclic GMP 1.0 picomoles): 22.3%
- Percentage of 75Se-labelled cyclic GMP bound ([2]; dose of cyclic GMP 2.0 picomoles): 14.0%
- Percentage of 75Se-labelled cyclic GMP bound ([2]; dose of cyclic GMP 4.0 picomoles): 9.3%
- Percentage of 75Se-labelled cyclic GMP bound ([2]; dose of cyclic GMP 8.0 picomoles): 6.5%
- binding to an antibody raised against cyclic GMP-2'-O-succinyl-BSA ([2]; qualitative): shown to bind

Structure (SMILES): C[75Se]c1ncnc2c1ncn2[C@@H]1O[C@@H]2COP(=O)(O)O[C@H]2[C@H]1O [III, 6methylselenopurineriboside-3',5'-cyclic monophosphate-^75 Se]
- binding to natural binding protein extracted from bovine muscle [1]: shown to bind
- displacement with 3',5'-cyclic AMP from natural binding protein [1]: capable of displacement
- cyclic AMP causing as much displacement of tritiated cyclic AMP (binding protein; 9.6pmoles of Se analogue): 12.2 pmol
- % 3H-cyclic AMP bound (binding protein; Se analogue 9.6 pmoles/50μl): 5.06%
- Cyclic AMP equivalent (binding protein; Se analogue 9.6 pmoles/50μl): 12.2 pmoles/50μl
- % 3H-cyclic AMP bound (binding protein; Se analogue 105 pmoles/50μl): 0.96%
- Cyclic AMP equivalent (binding protein; Se analogue 105 pmoles/50μl): 69.7 pmoles/50μl
- % 3H-cyclic AMP bound (binding protein; Se analogue 1,156 pmoles/50μl): 0.42%
- Cyclic AMP equivalent (binding protein; Se analogue 1,156 pmoles/50μl): 161 pmoles/50μl
- binding power compared with cyclic AMP (binding protein; at the concentration employed (9.6pmoles)): very similar binding powers

Structure (SMILES): C[75Se]C[C@H](NC(=O)CCC(=O)O[C@@H]1[C@@H]2OP(=O)(O)OC[C@H]2O[C@H]1n1cnc2c(N)ncnc21)C(=O)O [IV]
- binding to antibodies raised against these cyclic nucleotides [3]: bind strongly

Structure (SMILES): C[75Se]C[C@H](NC(=O)CCC(=O)O[C@@H]1[C@@H]2OP(=O)(O)OC[C@H]2O[C@H]1n1cnc2c(=O)[nH]c(N)nc21)C(=O)O [V]
- binding to antibodies raised against these cyclic nucleotides [3]: bind strongly
- Percentage of 75Se-labelled cyclic GMP bound ([4]; dose of cyclic GMP 0 picomoles): 24.5%
- Percentage of 75Se-labelled cyclic GMP bound ([4]; dose of cyclic GMP 5 picomoles): 17.3%
- Percentage of 75Se-labelled cyclic GMP bound ([4]; dose of cyclic GMP 10 picomoles): 16.7%
- Percentage of 75Se-labelled cyclic GMP bound ([4]; dose of cyclic GMP 20 picomoles): 11.8%
- Percentage of 75Se-labelled cyclic GMP bound ([4]; dose of cyclic GMP 40 picomoles): 8.3%
- Percentage of 75Se-labelled cyclic GMP bound ([4]; dose of cyclic GMP 80 picomoles): 6.1%
